Test results: patent US20190047966A1, “NOVEL COMPOUND AND PHARMACOLOGICALLY ACCEPTABLE SALT THEREOF” (MEIJI SEIKA PHARMA CO., LTD., priority 2016, published 2019)
Where a name gives a salt, the structure may show the parent alone.

Columns and labels:
[1] = molecular target: human histamine H1 receptor (Homo sapiens, UniProt P35367); test: Evaluation of Human H1 Receptor Affinity ([3H]pyrilamine binding); parameters: purchased PerkinElmer Inc; host or cells: CHO-K1; settings: inhibition constant Ki, CHO-K1 membrane preparation
Chain of human histamine H1 receptor (P35367 whole entry): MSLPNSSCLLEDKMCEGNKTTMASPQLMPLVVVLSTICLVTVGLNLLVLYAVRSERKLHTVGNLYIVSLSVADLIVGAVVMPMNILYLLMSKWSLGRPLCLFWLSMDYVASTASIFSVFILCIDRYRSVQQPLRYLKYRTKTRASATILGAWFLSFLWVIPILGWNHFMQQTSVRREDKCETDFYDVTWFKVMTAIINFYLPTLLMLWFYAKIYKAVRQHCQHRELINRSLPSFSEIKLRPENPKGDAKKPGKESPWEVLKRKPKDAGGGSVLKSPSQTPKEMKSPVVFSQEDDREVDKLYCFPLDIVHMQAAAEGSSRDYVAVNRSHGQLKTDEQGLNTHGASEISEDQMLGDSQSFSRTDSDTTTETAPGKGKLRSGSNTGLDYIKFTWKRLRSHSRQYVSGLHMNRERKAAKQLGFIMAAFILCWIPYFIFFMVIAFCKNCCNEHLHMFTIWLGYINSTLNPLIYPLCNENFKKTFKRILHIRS
In short: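 Ki values are Cheng-Prusoff conversions of IC50 (Kd 1.1 nM) from radioligand displacement of 1.2 nM [3H]pyrilamine, with 1.0 μM pyrilamine defining nonspecific binding.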

[2] = molecular target: T1, human histamine H4 receptor (Homo sapiens, UniProt Q9H3N8); test: Evaluation of Human H4 Receptor Affinity ([3H]histamine binding); settings: inhibition constant Ki, CHO-K1 membrane preparation, read-out: Evaluation of H4 Receptor Affinity
T1 construct: purchased PerkinElmer Inc; host or cells: CHO-K1
In short: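 Membranes from CHO-K1 cells expressing human H4 receptor incubated with 8.2 nM [3H]histamine and compound for 90 min at 25 °C in 50 mM Tris-HCl pH 7.4, 1.25 mM EDTA, then filtered and counted. Nonspecific binding defined with 1.0 μM histamine; Ki from IC50 by Cheng-Prusoff using Kd 5.7 nM.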

Row | Ki [1] | Ki [2] | SMILES
1 | < 100 nM | 100 to 500 nM | Nc1nc2c(c(N3CCN(CCOCCOCC4(C(=O)O)COC4)CC3)n1)CCc1cc(OCc3ccc(Cl)cc3)ccc1-2 [Example 168, 3-((2-(2-(4-(2-amino-8-((4-chlorobenzyl)oxy)-5,6-dihydrobenzo[h]quinazolin-4-yl)piperazin-1-yl)ethoxy)ethoxy)methyl)oxetane-3-carboxylic acid]
2 | < 100 nM | 100 to 500 nM | CC12CCC(C(=O)O)(CC1OCCN1CCN(c3nc(N)nc4c3CCc3cc(OCc5ccc(Cl)cc5)ccc3-4)CC1)C2(C)C (stereo not shown) [Example 158, 3-(2-(4-(2-amino-8-((4-chlorobenzyl)oxy)-5,6-dihydrobenzo[h]quinazolin-4-yl)piperazin-1-yl)ethoxy)-4,7,7-trimethylbicyclo[2.2.1]heptane-1-carboxylic acid hydrochloride]
3 | < 100 nM | 100 to 500 nM | CCS(=O)(=O)CCCN1CCN(c2nc(N)nc3c2CCc2cc(OCc4ccccc4)ccc2-3)CC1 [Example 107, 8-(benzyloxy)-4-(4-(3-(ethylsulfonyl)propyl)piperazin-1-yl)-5,6-dihydrobenzo[h]quinazolin-2-amine]
4 | < 100 nM | < 100 nM | Nc1nc2c(c(N3CCN(CCCCCOCC(=O)O)CC3)n1)CCc1cc(OCc3ccccc3)ccc1-2 [Example 120, 2-((5-(4-(2-amino-8-(benzyloxy)-5,6-dihydrobenzo[h]quinazolin-4-yl)piperazin-1-yl)pentyl)oxy)acetic acid]
5 | < 100 nM | < 100 nM | CN1CCN(c2nc(N)nc3c2CCc2cc(NS(=O)(=O)CCCOc4ccccc4)ccc2-3)CC1 [Example 40, N-(2-amino-4-(4-methylpiperazin-1-yl)-5,6-dihydrobenzo[h]quinazolin-8-yl)-3-phenoxypropane-1-sulfonamide]
6 | < 100 nM | < 100 nM | CN1CCN(c2nc(N)nc3c2CCc2ccc(OCc4ccccc4)cc2-3)CC1 [Example 200, 9-(benzyloxy)-4-(4-methylpiperazin-1-yl)-5,6-dihydrobenzo[h]quinazolin-2-amine]
7 | < 100 nM | < 100 nM | CC(C)(C(=O)O)[C@H]1C[C@H](OCCN2CCN(c3nc(N)nc4c3CCc3cc(OCc5ccc(Cl)cc5)ccc3-4)CC2)C1 [Example 173, trans-2-(3-(2-(4-(2-amino-8-((4-chlorobenzyl)oxy)-5,6-dihydrobenzo[h]quinazolin-4-yl)piperazin-1-yl)ethoxy)cyclobutyl)-2-methylpropanoic acid]
8 | < 100 nM | 100 to 500 nM | CN1CCN(c2nc(N)nc3c2CCc2cc(NS(=O)(=O)c4ccc(Cl)c(F)c4)ccc2-3)CC1 [Example 45, N-(2-amino-4-(4-methylpiperazin-1-yl)-5,6-dihydrobenzo[h]quinazolin-8-yl)-4-chloro-3-fluorobenzenesulfonamide]
9 | < 100 nM | < 100 nM | Nc1nc2c(c(N3CCN(CCOc4ccc(CC(=O)O)cc4)CC3)n1)CCc1cc(OCc3ccc(Cl)cc3)ccc1-2 [Example 137, 2-(4-(2-(4-(2-amino-8-((4-chlorobenzyl)oxy)-5,6-dihydrobenzo[h]quinazolin-4-yl)piperazin-1-yl)ethoxy)phenyl)acetic acid dihydrochloride]
10 | < 100 nM | < 100 nM | Nc1nc2c(c(N3CCN(CCOCC4CCCC(C(=O)O)C4)CC3)n1)CCc1cc(OCc3ccc(OC(F)(F)F)cc3)ccc1-2 (stereo not drawn) [Example 185, trans-3-((2-(4-(2-amino-8-((4-(trifluoromethoxy)benzyl)oxy)-5,6-dihydrobenzo[h]quinazolin-4-yl)piperazin-l-yl)ethoxy)methyl)cyclohexane-1-carboxylic acid dihydrochloride]
11 | < 100 nM | 100 to 500 nM | Nc1nc2c(c(N3CCN(CCO[C@H]4CC[C@H]5[C@H](C(=O)O)[C@H]54)CC3)n1)CCc1cc(OCc3ccc(OC(F)(F)F)cc3)ccc1-2 [Example 181, (1S,25,5R,65)-2-(2-(4-(2-amino-8-((4-(trifluoromethoxy)benzyl)oxy)-5,6-dihydrobenzo[h]quinazolin-4-yl)piperazin-1-yl)ethoxy)bicyclo[3.1.0]hexane-6-carboxylic acid]
12 | < 100 nM | 100 to 500 nM | CN1CCN(c2nc(N)nc3c2CCc2cc(NS(=O)(=O)c4ccc(Cl)cc4F)ccc2-3)CC1 [Example 46, N-(2-amino-4-(4-methylpiperazin-1-yl)-5,6-dihydrobenzo[h]quinazolin-8-yl)-4-chloro-2-fluorobenzenesulfonamide]
13 | < 100 nM | < 100 nM | Nc1nc2c(c(N3CCN(CCOC4CCC(C(=O)O)OC4)CC3)n1)CCc1cc(OCc3ccc(OC(F)(F)F)cc3)ccc1-2 (stereo not shown) [Example 179, 5-(2-(4-(2-amino-8-((4-(trifluoromethoxy)benzyl)oxy)-5,6-dihydrobenzo[h]quinazolin-4-yl)piperazin-1-yl)ethoxy)tetrahydro-2H-pyran-2-carboxylic acid]
14 | < 100 nM | 100 to 500 nM | CS(=O)(=O)NC(=O)COCCOCCN1CCN(c2nc(N)nc3c2CCc2cc(OCc4ccc(Cl)cc4)ccc2-3)CC1 [Example 187, 2-(2-(2-(4-(2-amino-8-((4-chlorobenzyl)oxy)-5,6-dihydrobenzo[h]quinazolin-4-yl)piperazin-1-yl)ethoxy)ethoxy)-N-(methylsulfonyl)acetamide]
15 | < 100 nM | < 100 nM | Nc1nc2c(c(N3CCN(CCO[C@H]4C[C@@H](C(=O)O)C4)CC3)n1)CCc1cc(OCc3ccc(OC(F)F)cc3)ccc1-2 [Example 210, cis-3-(2-(4-(2-amino-8-((4-(difluoromethoxy)benzyl)oxy)-5,6-dihydrobenzo[h]quinazolin-4-yl)piperazin-1-yl)ethoxy)cyclobutane-1-carboxylic acid]
16 | < 100 nM | 100 to 500 nM | Nc1nc2c(c(N3CCN(CCO)CC3)n1)CCc1cc(OCc3ccccc3)ccc1-2 [Example 7, 2-(4-(2-amino-8-(benzyloxy)-5,6-dihydrobenzo[h]quinazolin-4-yl)piperazin-1-yl)ethan-1-ol]
17 | < 100 nM | < 100 nM | Nc1nc2c(c(N3CCN(CCOC45CCC(C(=O)O)(CC4)CC5)CC3)n1)CCc1cc(OCc3ccc(Cl)cc3)ccc1-2 [Example 157, 4-(2-(4-(2-amino-8-((4-chlorobenzyl)oxy)-5,6-dihydrobenzo[h]quinazolin-4-yl)piperazin-1-yl)ethoxy)bicyclo[2.2.2]octane-1-carboxylic acid hydrochloride]
18 | 100 to 500 nM | 100 to 500 nM | CN1CCN(c2nc(N)nc3c2CCc2cc(NS(=O)(=O)C4CCCCC4)ccc2-3)CC1 [Example 56, N-(2-amino-4-(4-methylpiperazin-1-yl)-5,6-dihydrobenzo[h]quinazolin-8-yl)cyclohexanesulfonamide]
19 | < 100 nM | < 100 nM | Nc1nc2c(c(N3CCN(CCO[C@H]4C[C@@H](C(=O)NO)C4)CC3)n1)CCc1cc(OCc3ccc(OC(F)(F)F)cc3)ccc1-2 [Example 189, cis 3-(2-(4-(2-amino-8-((4-(trifluoromethoxy)benzyl)oxy)-5,6-dihydrobenzo[h]quinazolin-4-yl)piperazin-1-yl)ethoxy)-N-hydroxycyclobutane-l-carboxamide]
20 | < 100 nM | < 100 nM | Nc1nc2c(c(N3CCN(CCOCCOCCO)CC3)n1)CCc1cc(OCc3ccc(Cl)cc3)ccc1-2 [Example 9, 2-(2-(2-(4-(2-amino-8-((4-chlorobenzyl)oxy)-5,6-dihydrobenzo[h]quinazolin-4-yl)piperazin-1-yl)ethoxy)ethoxy)ethan-1-ol]
